# “And” between values parts separate entries of the source, which are not always exact repeats. Equal values may be shown once. Read-outs that look alike come from different tables or passages of the source.
# How the values were obtained:
# [1] = molecular target: PurC (unrelated protein, control) (Bacillus anthracis, UniProt Q81ZH5); format: binding; conditions: read-out: KD PurC (control)
# [2] = tested on: test strain 923 pPvra-lux (USA300 MRSA); experiment: Primary screen, relative growth in presence of oxacillin; conditions: compound 10 μM with oxacillin 2 μg/mL, absorbance 24 h, <0.50 = dead cells = hit
# multiple strains of MRSA = experiment: MICs (minimal inhibitory concentrations) vs multiple strains of MRSA; format: cell-based, Staphylococcus aureus; conditions: compound at 0.25 mg/L
# VraR = VraR (Staphylococcus aureus, UniProt Q7A4R9); experiment: biochemical; format: binding; conditions: for Kd: NB = No Binding
# Chain of VraR (Q7A4R9 whole entry, the tested form may be a part): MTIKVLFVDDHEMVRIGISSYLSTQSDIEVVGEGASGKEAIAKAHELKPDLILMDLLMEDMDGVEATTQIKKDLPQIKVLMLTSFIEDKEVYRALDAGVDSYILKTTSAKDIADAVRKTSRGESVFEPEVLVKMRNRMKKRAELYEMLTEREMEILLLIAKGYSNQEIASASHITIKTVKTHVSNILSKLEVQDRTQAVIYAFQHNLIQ
# [3] = molecular target: cytoplasmic domain of VraS (VraS-C) (Staphylococcus aureus, UniProt Q99SZ7); experiment: biochemical; format: binding
# Chain of cytoplasmic domain of VraS (VraS-C) (Q99SZ7 70-347): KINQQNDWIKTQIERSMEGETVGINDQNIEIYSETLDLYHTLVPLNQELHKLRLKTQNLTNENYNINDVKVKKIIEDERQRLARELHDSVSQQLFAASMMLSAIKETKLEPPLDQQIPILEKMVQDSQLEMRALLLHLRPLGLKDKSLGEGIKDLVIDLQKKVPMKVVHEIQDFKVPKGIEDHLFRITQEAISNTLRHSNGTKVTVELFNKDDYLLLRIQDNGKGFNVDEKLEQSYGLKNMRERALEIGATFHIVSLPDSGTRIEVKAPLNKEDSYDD
# [4] = tested on: vraSR promoter (Pvra-lux reporter in strain 923); format: cell-based, Staphylococcus aureus
# Procedure: In the secondary screen each microtiter plate contained either cells in TSB alone (16 replicates), cells with oxacillin (2 μg/mL, 31 replicates), or cells with test compound and oxacillin (2 μg/mL, 49 wells). Each compound was assayed in four separate biological replicates. […]
# [5] = tested on: vraSR promoter (Pvra-lux reporter in strain 923); experiment: Primary screen, relative luminescence (vraSR expression); conditions: primary screen, compound 10 μM with oxacillin 2 μg/mL; <0.50 = vraSR repressed = hit
# [6] = tested on: test strain (923 pPvra-lux); experiment: Growth inhibition by compound alone (maximum non-growth-inhibitory concentration); format: cell-based, Staphylococcus aureus; conditions: compound alone; maximum concentration where it did NOT inhibit growth
# [7] = tested on: test strain 923 pPvra-lux; experiment: Secondary screen / synergy confirmation of Top 40, relative growth with oxacillin; format: cell-based, Staphylococcus aureus; conditions: Top 40 library, compound at maximum non-GI conc
# Procedure: In the secondary screen each microtiter plate contained either cells in TSB alone (16 replicates), cells with oxacillin (2 μg/mL, 31 replicates), or cells with test compound and oxacillin (2 μg/mL, 49 wells). Each compound was assayed in four separate biological replicates.
# Synergy Confirmation of “Top 40”. […]
# [8] = tested on: vancomycin intermediate resistant Staphylococcus aureus strain, VISA 2283; conditions: cited from earlier work; for MIC Van: vancomycin alone
# [9] = tested on: vanA containing VRSA strain VRS1; conditions: cited from earlier work
# [10] = tested on: hetero VISA isolate, hVISA 2275; conditions: cited from earlier work
# [11] = tested on: vanA containing VRSA strain VRS2; conditions: cited from earlier work
# [12] = new run with His-tagged VraS, NB = No Binding, read-out: KD VraS
# Chain of PurC (unrelated protein, control) (Q81ZH5 whole entry, looked up): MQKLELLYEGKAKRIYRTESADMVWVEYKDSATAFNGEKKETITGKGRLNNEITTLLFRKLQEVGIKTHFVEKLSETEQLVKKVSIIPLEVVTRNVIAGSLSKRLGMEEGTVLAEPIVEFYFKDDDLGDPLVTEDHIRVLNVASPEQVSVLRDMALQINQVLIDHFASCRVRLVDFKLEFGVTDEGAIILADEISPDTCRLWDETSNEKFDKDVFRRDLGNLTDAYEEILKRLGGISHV
compound,measurement,setting,value
CSc1cccc(-c2nnc(NC(=O)c3nc4ccccc4s3)o2)c1 [F2645-0188],Kd,[1],> 100 µM
same,RG avg (relative growth),[2],0.03
same,Ox MIC in presence of compound,"multiple strains of MRSA; isolate 923, SCCmec IV, ST 8",2 µg/mL
same,Ox MIC in presence of compound,"multiple strains of MRSA; isolate 1176, SCCmec II, ST 231",<0.5 µg/mL
same,Ox MIC in presence of compound,"multiple strains of MRSA; isolate 2169, SCCmec IV, ST 72",0.5 µg/mL
same,Ox MIC in presence of compound,"multiple strains of MRSA; isolate 8004-01, SCCmec III, ST 239",64 µg/mL
same,Ox MIC in presence of compound,"multiple strains of MRSA; isolate 8010-01, SCCmec IV, ST 8",0.5 µg/mL
same,Ox MIC in presence of compound,"multiple strains of MRSA; isolate 8227-01, SCCmec IV, ST 87",0.5 µg/mL
same,Ox MIC in presence of compound,"multiple strains of MRSA; isolate 11095, SCCmec II, ST 105",32 µg/mL
same,Ox MIC in presence of compound,"multiple strains of MRSA; isolate 13113, SCCmec II, ST 5",<0.13 µg/mL
same,Ox MIC in presence of compound,"multiple strains of MRSA; isolate 13354, SCCmec IV, ST 5",<0.13 µg/mL
same,Ox MIC in presence of compound,"multiple strains of MRSA; isolate 14315, SCCmec IV, ST 1",<0.5 µg/mL
same,Ox MIC in presence of compound,"multiple strains of MRSA; isolate Q2461, SCCmec VT, ST 59",0.25 µg/mL
same,Kd,VraR; His-tagged VraR,> 100 µM
same,Kd,"[3]; His-tagged VraS-C, SPR, read-out: KD",56.1 ± 16.3 µM
same,binding to VraS-C,[3]; SPR,Binds
same,RUmax VraS,[3]; new run with His-tagged VraS,(74.1 ± 10.7)
same,RUmax VraS,[3]; previous run with untagged VraS,325 ± 33
same,Kd,"[3]; untagged VraS-C protein, SPR, read-out: KD",13.2 ± 3.2 µM
same,RL Ox avg,"[4]; Top 40 library, with oxacillin, compound at maximum non-GI conc",0.05
same,vraSR repressing synergist,[4]; overall class from syn and rep,1. confirmed
same,RL avg (relative luminescence),[5],0.37
same,maximum non-GI conc,[6],40 µg/mL
same,RG Ox avg,[7],0.03
"Cc1cc(/C=C/c2ccc3cc(N(C)C)ccc3[n+]2C)c(C)n1-c1ccccc1 [Pyr, Pyrvinium]",Kd,[1],> 100 µM
same,Kd,VraR; His-tagged VraR,> 100 µM
same,binding to VraS-C,[3]; SPR,binds
same,RUmax VraS,[3]; new run with His-tagged VraS,46.5 ± 2.9
same,Kd,[3]; [12],21.3 ± 3.6 µM
same,Synergy category,[8]; VISA 2283,non syn
same,potentiation of vancomycin,[8]; VISA,not
same,fold decrease Van MIC,[9],64 fold
same,potentiation of vancomycin,[9],fully potentiated
same,"MIC compound (Clo, Pyr, Gos)",[9]; compound alone,2.24 µg/mL
same,"MIC (in combination) Clo+, Pyr+, Gos+","[10]; MIC of the compound in combination with the indicated Van concentration, hVISA 2275",0.56 µg/mL
same,"MIC compound (Clo, Pyr, Gos)","[10]; compound alone, hVISA 2275",16 µg/mL
same,FICi V + compound,[10]; hVISA 2275,0.54
same,Synergy category,[10]; hVISA 2275,partial (partially potentiated vancomycin (FIC i>0.5 and <1.0))
same,fold decrease Van MIC,[10]; hVISA 2275,2 fold
same,potentiation of vancomycin,[10]; hVISA,partially potentiated
same,Van FIC,"[10]; in combination with compound, hVISA 2275",0.50
same,"Clo FIC, Pyr FIC, Gos FIC","[10]; in combination with vancomycin, hVISA 2275",0.04
same,MIC (in combination) Van+,"[10]; vancomycin MIC when used in combination with compound, hVISA 2275",2 µg/mL
same,Synergy category,[11],synergistic (An FICi of ≦0.5 defines a synergistic interaction)
same,potentiation of vancomycin,[11],fully potentiated
same,"MIC compound (Clo, Pyr, Gos)",[11]; compound alone,1.12 µg/mL
O=C(Nc1nnc(-c2ccc(F)cc2)o1)c1nc2ccccc2s1 [F1374-0138],Kd,[1],> 100 µM
same,Kd,VraR; His-tagged VraR,> 100 µM
same,Kd,[3]; [12],> 100 µM
COc1cccc(-c2nnc(NC(=O)c3ccc(Cl)s3)o2)c1 [F1374-0351],Kd,[1],> 100 µM
same,Kd,VraR; His-tagged VraR,> 100 µM
same,Kd,[3]; [12],> 100 µM
O=C(Nc1nnc(-c2cc(Cl)sc2Cl)o1)c1nc2ccccc2s1 [F1374-2739],Kd,[1],> 100 µM
same,RUmax VraR,VraR; His-tagged VraR,80.3 ± 8.8
same,Kd,VraR; His-tagged VraR,54.4 ± 12.2 µM
same,binding to VraR,VraR; SPR,bound
same,binding to VraS-C,[3]; SPR,bound
same,RUmax VraS,[3]; new run with His-tagged VraS,69.1 ± 6.2
same,Kd,[3]; [12],69.6 ± 11.6 µM
"CN[C@H](CC(C)C)C(=O)N[C@H]1C(=O)N[C@@H](CC(N)=O)C(=O)N[C@H]2C(=O)N[C@H]3C(=O)N[C@H](C(=O)N[C@H](C(=O)O)c4cc(O)cc(O)c4-c4cc3ccc4O)[C@H](O)c3ccc(c(Cl)c3)Oc3cc2cc(c3O[C@@H]2O[C@H](CO)[C@@H](O)[C@H](O)[C@H]2O[C@H]2C[C@](C)(N)[C@H](O)[C@H](C)O2)Oc2ccc(cc2Cl)[C@H]1O [Van, Vancomycin]",MIC Van,[8]; VISA 2283,8 µg/mL
same,MIC Van,"[8]; VISA 2283, listed as vancomycin",16 µg/mL and 8 µg/mL
same,MIC Van,[9]; vancomycin alone,1024 µg/mL
same,MIC Van,"[10]; vancomycin alone, hVISA 2275",4 µg/mL
same,MIC Van,[11]; vancomycin alone,16 µg/mL
O=C(Nc1nnc(-c2ccccc2Cl)o1)c1cccc(Oc2ccccc2)c1 [F1374-0081],Kd,[1],> 100 µM
same,Kd,VraR; His-tagged VraR,> 100 µM
same,Kd,[3]; [12],> 100 µM
Cc1ccc(C)c(-c2nnc(NC(=O)c3cc(Cl)sc3Cl)o2)c1 [F2518-0360],Kd,[1],> 100 µM
same,Kd,VraR; His-tagged VraR,> 100 µM
same,Kd,[3]; [12],> 100 µM

# — patent US9675592B2, “Methods and compositions for bacteria infections” (priority 2013, dated 2017)
